In ChEMBL document CHEMBL3046898, “Synthesis and characterization of flurbiprofen hydrazide derivatives as potential anti-HCV, anticancer and antimicrobial agents” (2013):
Activity calls are given as the source filed them. The calls are words filed in the database; no cut-off is given here.

Key:
[1] = tested on: Micrococcus lylae; assay: Antibacterial activity against Micrococcus lylae at 6.25 to 200 ug/ml after 24 hrs by microwell dilution method; format: functional, organism-based
[2] = tested on: Proteus vulgaris; assay: Antibacterial activity against Proteus vulgaris at 6.25 to 200 ug/ml after 24 hrs by microwell dilution method; format: functional, organism-based
[3] = tested on: Escherichia coli; assay: Antibacterial activity against Escherichia coli at 6.25 to 200 ug/ml after 24 hrs by microwell dilution method; format: functional, organism-based
[4] = tested on: Aspergillus; assay: Antifungal activity against Aspergillus at 10 mg/ml after 72 hrs by disc diffusion method; format: functional, organism-based
[5] = tested on: Pichia membranifaciens; assay: Antifungal activity against Pichia membranifaciens at 10 mg/ml after 48 hrs by disc diffusion method; format: functional, organism-based
[6] = tested on: Schwanniomyces occidentalis; assay: Antifungal activity against Schwanniomyces occidentalis at 10 mg/ml after 48 hrs by disc diffusion method; format: functional, organism-based
[7] = tested on: Nakaseomyces glabratus; assay: Antifungal activity against Candida glabrata at 10 mg/ml after 48 hrs by disc diffusion method; format: functional, organism-based
[8] = tested on: Candida albicans; assay: Antifungal activity against Candida albicans at 10 mg/ml after 48 hrs by disc diffusion method; format: functional, organism-based
[9] = tested on: Photorhabdus luminescens; assay: Antibacterial activity against Photorhabdus luminescens at 10 mg/ml after 24 hrs by disc diffusion method; format: functional, organism-based
[10] = tested on: MDA-MB-231; assay: Cytotoxicity against human MDA-MB-231 assessed as cell growth at 10 uM after 48 hrs by SRB assay; format: functional; details: MDA-MB-231, 48 h, read-out: Activity
[11] = tested on: UO-31; assay: Cytotoxicity against human UO31 assessed as cell growth at 10 uM after 48 hrs by SRB assay; format: functional; details: UO-31, 48 h, read-out: Activity
[12] = tested on: TK-10; assay: Cytotoxicity against human TK10 assessed as cell growth at 10 uM after 48 hrs by SRB assay; format: functional; details: TK-10, 48 h, read-out: Activity
[13] = tested on: CAKI-1; assay: Cytotoxicity against human Caki1 assessed as cell growth at 10 uM after 48 hrs by SRB assay; format: functional; details: CAKI-1, 48 h, read-out: Activity
[14] = tested on: 786-0; assay: Cytotoxicity against human 786-0 assessed as cell growth at 10 uM after 48 hrs by SRB assay; format: functional; details: 786-0, 48 h, read-out: Activity
[15] = Cytotoxicity against human NCI-ADR-RES assessed as cell growth at 10 uM after 48 hrs by SRB assay; format: functional; details: read-out: Activity
[16] = tested on: SK-OV-3; assay: Cytotoxicity against human SKOV3 assessed as cell growth at 10 uM after 48 hrs by SRB assay; format: functional; details: SK-OV-3, 48 h, read-out: Activity
[17] = tested on: OVCAR-5; assay: Cytotoxicity against human OVCAR5 assessed as cell growth at 10 uM after 48 hrs by SRB assay; format: functional; details: OVCAR-5, 48 h, read-out: Activity
[18] = tested on: OVCAR-4; assay: Cytotoxicity against human OVCAR4 assessed as cell growth at 10 uM after 48 hrs by SRB assay; format: functional; details: OVCAR-4, 48 h, read-out: Activity
[19] = tested on: OVCAR-3; assay: Cytotoxicity against human OVCAR3 assessed as cell growth at 10 uM after 48 hrs by SRB assay; format: functional; details: OVCAR-3, 48 h, read-out: Activity
[20] = tested on: IGROV-1; assay: Cytotoxicity against human IGROV1 assessed as cell growth at 10 uM after 48 hrs by SRB assay; format: functional; details: IGROV-1, 48 h, read-out: Activity
[21] = tested on: UACC-257; assay: Cytotoxicity against human UACC257 assessed as cell growth at 10 uM after 48 hrs by SRB assay; format: functional; details: UACC-257, 48 h, read-out: Activity
[22] = tested on: KM12; assay: Cytotoxicity against human KM12 assessed as cell growth at 10 uM after 48 hrs by SRB assay; format: functional; details: KM12, 48 h, read-out: Activity
[23] = tested on: SW-620; assay: Cytotoxicity against human SW620 assessed as cell growth at 10 uM after 48 hrs by SRB assay; format: functional; details: SW-620, 48 h, read-out: Activity
[24] = tested on: HT-29; assay: Cytotoxicity against human HT-29 assessed as cell growth at 10 uM after 48 hrs by SRB assay; format: functional; details: HT-29, 48 h, read-out: Activity
[25] = tested on: COLO 205; assay: Cytotoxicity against human COLO205 assessed as cell growth at 10 uM after 48 hrs by SRB assay; format: functional; details: COLO 205, 48 h, read-out: Activity
[26] = tested on: NCI-H522; assay: Cytotoxicity against human NCI-H522 assessed as cell growth at 10 uM after 48 hrs by SRB assay; format: functional; details: NCI-H522, 48 h, read-out: Activity
[27] = tested on: NCI-H226; assay: Cytotoxicity against human NCI-H226 assessed as cell growth at 10 uM after 48 hrs by SRB assay; format: functional; details: NCI-H226, 48 h, read-out: Activity
[28] = tested on: HOP-92; assay: Cytotoxicity against human HOP92 assessed as cell growth at 10 uM after 48 hrs by SRB assay; format: functional; details: HOP-92, 48 h, read-out: Activity
[29] = tested on: HOP-62; assay: Cytotoxicity against human HOP62 assessed as cell growth at 10 uM after 48 hrs by SRB assay; format: functional; details: HOP-62, 48 h, read-out: Activity
[30] = tested on: Klebsiella aerogenes; assay: Antibacterial activity against Enterobacter aerogenes at 6.25 to 200 ug/ml after 24 hrs by microwell dilution method; format: functional, organism-based
[31] = tested on: Salmonella paratyphi; assay: Antibacterial activity against Salmonella paratyphi at 6.25 to 200 ug/ml after 24 hrs by microwell dilution method; format: functional, organism-based; details: Salmonella enterica subsp. enterica serovar Paratyphi A
[32] = tested on: A549; assay: Cytotoxicity against human A549 assessed as cell growth at 10 uM after 48 hrs by SRB assay; format: functional; details: A549, 48 h, read-out: Activity
[33] = tested on: MOLT-4; assay: Cytotoxicity against human MOLT4 assessed as cell growth at 10 uM after 48 hrs by SRB assay; format: functional; details: MOLT-4, 48 h, read-out: Activity
[34] = tested on: HL-60(TB); assay: Cytotoxicity against human HL-60(TB) assessed as cell growth at 10 uM after 48 hrs by SRB assay; format: functional; details: HL-60, 48 h, read-out: Activity
[35] = tested on: K562; assay: Cytotoxicity against human K562 assessed as cell growth at 10 uM after 48 hrs by SRB assay; format: functional; details: K562, 48 h, read-out: Activity
[36] = tested on: Acinetobacter radioresistens; assay: Antibacterial activity against Acinetobacter radioresistens at 10 mg/ml after 24 hrs by disc diffusion method; format: functional, organism-based
[37] = tested on: Micrococcus lylae; assay: Antibacterial activity against Micrococcus lylae at 10 mg/ml after 24 hrs by disc diffusion method; format: functional, organism-based
[38] = tested on: Escherichia coli; assay: Antibacterial activity against Escherichia coli at 10 mg/ml after 24 hrs by disc diffusion method; format: functional, organism-based
[39] = tested on: Proteus vulgaris; assay: Antibacterial activity against Proteus vulgaris at 10 mg/ml after 24 hrs by disc diffusion method; format: functional, organism-based
[40] = tested on: Micrococcus luteus; assay: Antibacterial activity against Micrococcus luteus at 10 mg/ml after 24 hrs by disc diffusion method; format: functional, organism-based
[41] = tested on: Staphylococcus aureus; assay: Antibacterial activity against Staphylococcus aureus at 10 mg/ml after 24 hrs by disc diffusion method; format: functional
[42] = tested on: Hepacivirus hominis; assay: Inhibition of HCV N-terminal His-tagged NS5B RNA dependent RNA polymerase expressed in Escherichia coli DH5alpha using poly rA/U12 as primer at 200 uM after 60 mins by liquid scintillation counting

CC(C(=O)NN1C(=O)CSC1c1ccc(C(F)(F)F)cc1)c1ccc(-c2ccccc2)c(F)c1 (configuration not stated)
Activity [1]: inactive
Activity [2]: inactive
Activity [3]: inactive
Activity [4]: inactive
Activity [5]: inactive
Activity [6]: inactive
Activity [7]: inactive
Activity [8]: inactive
Activity [9]: inactive
growth at 10 µM [10]: 70.1%
growth at 10 µM [11]: 58.8%
growth at 10 µM [12]: 99.5%
growth at 10 µM [13]: 33.6%
growth at 10 µM [14]: 47.2%
growth at 10 µM [15]: 86.5%
growth at 10 µM [16]: 94.7%
growth at 10 µM [17]: 105%
growth at 10 µM [18]: 58.6%
growth at 10 µM [19]: 64.3%
growth at 10 µM [20]: 75.5%
growth at 10 µM [21]: 94.4%
growth at 10 µM [22]: 46.2%
growth at 10 µM [23]: 83.9%
growth at 10 µM [24]: 55.1%
growth at 10 µM [25]: 108%
growth at 10 µM [26]: 79.5%
growth at 10 µM [27]: 86%
growth at 10 µM [28]: 59.9%
growth at 10 µM [29]: 82.1%
Activity [30]: inactive
Activity [31]: inactive
growth at 10 µM [32]: 68.6%
growth at 10 µM [33]: 43.5%
growth at 10 µM [34]: 36.9%
growth at 10 µM [35]: 39.5%
Activity [36]: inactive
Activity [37]: inactive
Activity [38]: inactive
Activity [39]: inactive
Activity [40]: inactive
Activity [41]: inactive
inhibition [42]: 8%
